Results published in patent US9573899B2, “USP7 inhibitor compounds and methods of use” (Genentech, Inc., priority 2015, dated 2017).
pIC50: −log10 of the molar value.

Legend:
[1] = molecular target: T1, USP7, full-length, native C-Terminus (Homo sapiens, UniProt Q93009); test: Biochemical USP7 assay with Ubiquitin-Rho110 substrate, compounds pre-incubated with USP7 (USP7_Ub-Rho preInc); details: compounds pre-mixed with USP7, 1 hour incubation, before substrate; read-out: USP7 Ub-Rho preInc (IC50)
T1 construct: USP7, full-length, native C-Terminus, 0.2 nM
T1 sequence (Q93009 whole entry): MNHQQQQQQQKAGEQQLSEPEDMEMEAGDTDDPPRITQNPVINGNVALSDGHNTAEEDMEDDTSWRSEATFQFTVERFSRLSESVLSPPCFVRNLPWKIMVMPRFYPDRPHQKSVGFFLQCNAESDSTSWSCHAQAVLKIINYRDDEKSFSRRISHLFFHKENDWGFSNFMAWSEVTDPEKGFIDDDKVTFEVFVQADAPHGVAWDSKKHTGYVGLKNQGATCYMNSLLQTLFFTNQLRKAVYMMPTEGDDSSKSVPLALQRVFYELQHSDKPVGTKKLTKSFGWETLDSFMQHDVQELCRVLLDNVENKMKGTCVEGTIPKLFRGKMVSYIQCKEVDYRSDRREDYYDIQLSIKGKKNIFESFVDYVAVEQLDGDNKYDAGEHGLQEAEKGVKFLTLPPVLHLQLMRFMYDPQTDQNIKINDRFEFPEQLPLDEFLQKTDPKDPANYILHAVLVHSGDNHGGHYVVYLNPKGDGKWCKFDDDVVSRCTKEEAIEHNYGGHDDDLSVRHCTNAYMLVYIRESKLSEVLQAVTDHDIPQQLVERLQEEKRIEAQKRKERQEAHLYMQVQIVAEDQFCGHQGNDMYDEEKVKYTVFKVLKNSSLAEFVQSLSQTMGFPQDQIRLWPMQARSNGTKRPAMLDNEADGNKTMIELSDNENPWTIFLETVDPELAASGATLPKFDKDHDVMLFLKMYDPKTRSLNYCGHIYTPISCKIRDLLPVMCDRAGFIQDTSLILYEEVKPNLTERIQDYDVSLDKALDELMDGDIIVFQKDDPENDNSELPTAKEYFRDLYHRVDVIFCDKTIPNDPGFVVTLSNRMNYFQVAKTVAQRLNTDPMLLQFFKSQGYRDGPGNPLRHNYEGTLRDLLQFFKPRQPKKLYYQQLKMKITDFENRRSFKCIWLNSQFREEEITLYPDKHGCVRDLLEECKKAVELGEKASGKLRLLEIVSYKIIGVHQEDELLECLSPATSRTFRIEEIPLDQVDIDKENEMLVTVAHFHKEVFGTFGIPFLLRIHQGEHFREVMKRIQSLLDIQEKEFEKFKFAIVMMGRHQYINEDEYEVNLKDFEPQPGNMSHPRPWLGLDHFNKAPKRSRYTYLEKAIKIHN
Description: (§1) Biochemical USP7 assays using Ubiquitin-Rho110 as a substrate: The final assay conditions were as follows: The Reaction Buffer consisted of: 50 mM Tris (pH 7.5), 0.01% (v/v) Triton X-100, 2.5 mM Dithiothreitol, 0.1% (w/v) bovine gamma globulin (Sigma cat #G5009-25G); USP7, full-length, native C-Terminus, 0.2 nM; the substrate, Ubiquitin-Rho110 (Boston Biochem cat #U-555), 1 uM. Reactions were carried out for 1 hour at room temperature, in black 20 μL volume polystyrene ProxiPlate 384 F Plus® (PerkinElmer cat #6008260).
(§2) Test compounds, including a control USP7 inhibitor (Ub-aldehyde, Boston Biochem cat #U-201) were serially diluted in DMSO, in 384 well clear V-bottom polypropylene plates (Greiner cat #781280). Compounds in DMSO were diluted 10-fold into Reaction Buffer, to achieve 3-fold the final desired concentration. The substrate, Ubiquitin-Rho110 (Boston Biochem cat #U-555), was prepared at 3 μM (3-fold the final concentration) and 5 ul was dispensed into the reaction plate. 5 ul of the compounds (diluted in Reaction Buffer at 3-fold the final concentration) were transferred to the reaction plate. 5 ul of 0.6 nM USP7 (diluted in Reaction Buffer at 3-fold the final concentration) was transferred to the reaction plate to initiate the reaction. After 1 hour incubation at room temperature the reaction was quenched by the addition of 5 ul of 400 mM acetic acid. The enzymatic product was measured by quantifying the fluorescence signal of cleaved Rhodamine-110 using excitation at 485 nm and emission at 535 nm. When pre-incubation of USP7 with compounds was required, the order of addition of reagents was modified to pre-mix the compounds with USP7 (with a 1 hour incubation period), prior to the addition of the substrate and the initiation of the reaction period. Percentage inhibition values were calculated relative to a no enzyme control and a uninhibited enzyme control. Curve fitting and IC50 calculations were carried out using Genedata Screener software.

[2] = molecular target: T2, USP7 (Homo sapiens, UniProt Q93009); test: Ub-Rho110 DUB assay, Table 2, USP7; assay type: biochemical; details: for selectivity of antagonism of USP7 catalytic activity over the DUBs evaluated: conclusion from Table 2 (USP7, USP7 cat, USP47, USP5)
T2 construct: USP7, full-length, native C-Terminus, 0.2 nM
T2 sequence (Q93009 whole entry): as above

[3] = molecular target: T3, USP47 (Homo sapiens, UniProt Q96K76); test: Ub-Rho110 DUB assay, Table 2, USP47; assay type: biochemical
T3 sequence (Q96K76 1-1375): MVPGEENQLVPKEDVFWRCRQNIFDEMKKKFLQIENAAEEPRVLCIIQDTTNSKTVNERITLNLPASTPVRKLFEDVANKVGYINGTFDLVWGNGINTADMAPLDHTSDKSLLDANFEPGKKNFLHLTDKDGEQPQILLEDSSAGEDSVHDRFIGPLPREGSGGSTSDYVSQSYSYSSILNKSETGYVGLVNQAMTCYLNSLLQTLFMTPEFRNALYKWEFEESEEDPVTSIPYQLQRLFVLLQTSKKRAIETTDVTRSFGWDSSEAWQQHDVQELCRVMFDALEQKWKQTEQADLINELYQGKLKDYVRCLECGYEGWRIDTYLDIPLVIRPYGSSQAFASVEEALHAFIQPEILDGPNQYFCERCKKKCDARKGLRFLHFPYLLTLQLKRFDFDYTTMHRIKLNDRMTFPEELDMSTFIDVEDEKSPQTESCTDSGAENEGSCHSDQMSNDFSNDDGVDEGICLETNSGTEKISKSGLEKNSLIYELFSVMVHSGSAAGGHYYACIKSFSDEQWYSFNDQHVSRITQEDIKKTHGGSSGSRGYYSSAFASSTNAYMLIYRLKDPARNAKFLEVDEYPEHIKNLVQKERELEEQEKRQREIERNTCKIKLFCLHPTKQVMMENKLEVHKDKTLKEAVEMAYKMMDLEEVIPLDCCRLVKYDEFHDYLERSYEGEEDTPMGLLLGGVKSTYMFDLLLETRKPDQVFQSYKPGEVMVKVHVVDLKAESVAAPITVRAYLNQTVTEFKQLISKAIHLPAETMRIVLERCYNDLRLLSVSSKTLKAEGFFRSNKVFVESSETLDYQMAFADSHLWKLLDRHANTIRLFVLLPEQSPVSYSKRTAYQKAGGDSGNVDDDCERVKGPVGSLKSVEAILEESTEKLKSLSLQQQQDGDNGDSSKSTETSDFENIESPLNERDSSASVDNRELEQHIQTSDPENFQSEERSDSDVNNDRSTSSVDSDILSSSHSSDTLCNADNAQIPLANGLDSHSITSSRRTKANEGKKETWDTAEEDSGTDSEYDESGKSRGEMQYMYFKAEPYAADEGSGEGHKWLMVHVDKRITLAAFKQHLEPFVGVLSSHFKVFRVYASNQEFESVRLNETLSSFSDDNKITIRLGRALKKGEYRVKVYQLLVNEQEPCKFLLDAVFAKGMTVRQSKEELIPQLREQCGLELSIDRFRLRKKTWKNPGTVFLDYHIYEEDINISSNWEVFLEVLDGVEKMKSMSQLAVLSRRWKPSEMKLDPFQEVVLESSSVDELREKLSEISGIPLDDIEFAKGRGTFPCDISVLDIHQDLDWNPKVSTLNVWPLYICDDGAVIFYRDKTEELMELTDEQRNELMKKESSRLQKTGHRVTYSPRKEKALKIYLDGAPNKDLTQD

[4] = molecular target: T4, USP5 (Homo sapiens, UniProt P45974); test: Ub-Rho110 DUB assay, Table 2, USP5
T4 sequence (P45974 1-858): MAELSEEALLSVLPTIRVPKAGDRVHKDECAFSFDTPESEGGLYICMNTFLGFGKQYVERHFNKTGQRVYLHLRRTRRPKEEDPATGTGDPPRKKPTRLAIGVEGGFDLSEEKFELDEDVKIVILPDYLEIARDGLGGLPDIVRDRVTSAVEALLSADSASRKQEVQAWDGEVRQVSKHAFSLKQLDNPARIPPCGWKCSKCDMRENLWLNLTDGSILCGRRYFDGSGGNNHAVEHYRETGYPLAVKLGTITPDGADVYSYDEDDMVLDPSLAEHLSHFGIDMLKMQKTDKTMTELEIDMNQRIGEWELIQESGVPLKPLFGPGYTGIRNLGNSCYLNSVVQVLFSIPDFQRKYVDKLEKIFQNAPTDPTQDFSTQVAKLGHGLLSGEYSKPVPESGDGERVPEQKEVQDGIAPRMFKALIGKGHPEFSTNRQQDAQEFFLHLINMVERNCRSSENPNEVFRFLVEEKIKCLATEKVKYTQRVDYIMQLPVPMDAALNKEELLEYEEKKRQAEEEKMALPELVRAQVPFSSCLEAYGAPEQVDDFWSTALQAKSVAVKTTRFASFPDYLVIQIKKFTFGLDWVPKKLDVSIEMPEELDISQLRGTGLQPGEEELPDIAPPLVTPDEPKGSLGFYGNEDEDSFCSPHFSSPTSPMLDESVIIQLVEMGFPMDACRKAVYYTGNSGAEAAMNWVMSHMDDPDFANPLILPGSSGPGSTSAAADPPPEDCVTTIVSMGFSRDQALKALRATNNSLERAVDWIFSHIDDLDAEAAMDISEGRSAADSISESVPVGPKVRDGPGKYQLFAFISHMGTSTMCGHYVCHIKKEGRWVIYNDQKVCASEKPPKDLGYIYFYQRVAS

[5] = system: p53 and p21 in HCT116 colon cancer cell lines; test: Western blot of p53 and p21 in isogenic HCT116 cell lines (FIG. 2A); assay type: cell-based, Human; details: isogenic HCT116: wild-type, USP7 null
Description: In 24-well plates, 0.10-0.15×10^6 (adherent) or 0.5×10^6 (suspension) cells were treated with 15 μM or 2.5 μM compounds, respectively, for 24 h in low serum prior to lysis for Western Blot analysis.

[6] = molecular target: USP7 catalytic domain (Homo sapiens, UniProt Q93009); test: Ub-Rho110 DUB assay, Table 2, USP7 catalytic domain; assay type: biochemical; details: read-out: Ub-Rho110 IC50, USP7 cat
Chain of USP7 catalytic domain (Q93009 214-521 limits assumed): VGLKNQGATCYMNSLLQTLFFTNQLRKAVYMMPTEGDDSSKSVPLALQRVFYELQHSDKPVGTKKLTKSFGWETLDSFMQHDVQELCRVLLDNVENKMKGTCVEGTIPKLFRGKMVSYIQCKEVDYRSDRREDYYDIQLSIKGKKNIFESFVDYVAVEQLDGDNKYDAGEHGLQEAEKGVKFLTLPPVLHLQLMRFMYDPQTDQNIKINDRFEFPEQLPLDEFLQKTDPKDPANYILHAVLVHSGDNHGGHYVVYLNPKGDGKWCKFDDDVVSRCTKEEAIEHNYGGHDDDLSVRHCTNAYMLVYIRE

[7] = molecular target: T1, USP7, full-length, native C-Terminus; test: Biochemical USP7 assay with Ubiquitin-Rho110 substrate (USP7_Ub-Rho110 Fluor); details: no pre-incubation; 1 hour reaction at room temperature; read-out: USP7 Ub-Rho110 Fluor (IC50)
Description: as §1, §2

What does the source list for CCc1c(-c2ccc(C(N)=O)cc2)cnc(N)c1-c1ccc(O)cc1 [Compound 45, 4-[6-amino-4-ethyl-5-(4-hydroxyphenyl)-3-pyridyl]benzamide]?
pIC50 [1]: 5.59; pIC50 [2]: 5.54; selectivity of antagonism of USP7 catalytic activity over the DUBs evaluated [2]: selective antagonists of USP7 catalytic activity; pIC50 [3]: < 3.70; pIC50 [4]: < 3.70; stabilization of p53 and p21 (western blot) [5]: not; pIC50 [6]: 5.89

How did the pIC50 [1] turn out when Nc1ncc(-c2ccc(O)cc2)c(C(F)(F)F)c1-c1ccc(O)cc1 [Compound 5, 4-[6-amino-5-(4-hydroxyphenyl)-4-(trifluoromethyl)-3-pyridyl]phenol] was run?
The pIC50 was 5.15.

And the pIC50 [7]?
Its pIC50 is 5.22.

Which results are given for CCc1c(-c2ccc(O)cc2)cnc(N)c1-c1ccc(OC)cc1F [Compound 10, 4-[6-amino-4-ethyl-5-(2-fluoro-4-methoxy-phenyl)-3-pyridyl]phenol]?
pIC50 [1]: 4.89; pIC50 [7]: 5.12

What does the source list for CCc1c(-c2ccc(O)cc2)cnc(N)c1-c1ccc(COC)cc1 [Compound 25, 4-[6-amino-4-ethyl-5-[4-(methoxymethyl)phenyl]-3-pyridyl]phenol]?
pIC50 [2]: < 4.20; selectivity of antagonism of USP7 catalytic activity over the DUBs evaluated [2]: ineffective in antagonizing the activity of any DUB evaluated; pIC50 [3]: < 3.70; pIC50 [4]: < 3.70; stabilization of p53 and p21 (western blot) [5]: stabilize p53 and p21; pIC50 [6]: < 4.20

What does the source list for CCc1c(-c2ccc(C(=O)NC)cc2)cnc(N)c1-c1ccc(O)cc1 [Compound 81, 4-[6-amino-4-ethyl-5-(4-hydroxyphenyl)-3-pyridyl]-N-methyl-benzamide]?
pIC50 [1]: 5.48; pIC50 [2]: 5.85; pIC50 [3]: < 3.70; pIC50 [6]: 6.28

CCc1c(-c2ccc(O)cc2)cnc(N)c1-c1ccc(O)cc1 [Compound 2, 4-[6-amino-4-ethyl-5-(4-hydroxyphenyl)-3-pyridyl]phenol] was tested. Which pIC50 [1] did it give?
Its pIC50 is 5.34.

And the pIC50 [7]?
The pIC50 was 5.52.

CCc1c(-c2cccc(CN(C)C)c2)cnc(N)c1-c1ccc(O)cc1 [Compound 12, 4-[2-amino-5-[3-[(dimethylamino)methyl]phenyl]-4-ethyl-3-pyridyl]phenol] was tested. Which pIC50 [7] did it give?
The pIC50 was 4.62.

What does the source list for CCc1c(-c2ccc(C(=O)NC)nc2)cnc(N)c1-c1ccc(O)cc1 [Compound 92, 5-[6-amino-4-ethyl-5-(4-hydroxyphenyl)-3-pyridyl]-N-methyl-pyridine-2-carboxamide]?
pIC50 [1]: 5.82; stabilization of p53 and p21 (western blot) [5]: stabilize p53 and p21

How did the pIC50 [7] turn out when CCc1c(-c2cccc(NC(C)=O)c2)cnc(N)c1-c1ccc(O)cc1 [Compound 8, N-[3-[6-amino-4-ethyl-5-(4-hydroxyphenyl)-3-pyridyl]phenyl]acetamide] was run?
The pIC50 was 4.35.

How did the pIC50 [7] turn out when CCc1c(-c2ccc(O)cc2)cnc(N)c1-c1ccc(O)cc1F [Compound 11, 4-[2-amino-4-ethyl-5-(4-hydroxyphenyl)-3-pyridyl]-3-fluoro-phenol] was run?
The pIC50 was less than 4.70.

How did the pIC50 [7] turn out when CC(C)c1c(-c2ccc(O)cc2)cnc(N)c1-c1ccc(O)cc1 [Compound 3, 4-[6-amino-5-(4-hydroxyphenyl)-4-isopropyl-3-pyridyl]phenol] was run?
The pIC50 was 3.71.
